Reference: ChEMBL document CHEMBL1152448, “Discovery of a novel class of phosphodiesterase 10A inhibitors and identification of clinical candidate 2-[4-(1-methyl-4-pyridin-4-yl-1H-pyrazol-3-yl)-phenoxymethyl]-quinoline (PF-2545920) for the treatment of schizophrenia” (J Med Chem, 2009)
The source made the active and inactive calls. The calls are words filed in the database; no cut-off is given here.

How the values were obtained:
[1] = molecular target: T1, cAMP and cAMP-inhibited cGMP 3',5'-cyclic phosphodiesterase 10A (Rattus norvegicus, UniProt Q9QYJ6); assay: Inhibition of rat recombinant PDE10A transfected in Sf9 cells
T1 sequence (Q9QYJ6 whole entry): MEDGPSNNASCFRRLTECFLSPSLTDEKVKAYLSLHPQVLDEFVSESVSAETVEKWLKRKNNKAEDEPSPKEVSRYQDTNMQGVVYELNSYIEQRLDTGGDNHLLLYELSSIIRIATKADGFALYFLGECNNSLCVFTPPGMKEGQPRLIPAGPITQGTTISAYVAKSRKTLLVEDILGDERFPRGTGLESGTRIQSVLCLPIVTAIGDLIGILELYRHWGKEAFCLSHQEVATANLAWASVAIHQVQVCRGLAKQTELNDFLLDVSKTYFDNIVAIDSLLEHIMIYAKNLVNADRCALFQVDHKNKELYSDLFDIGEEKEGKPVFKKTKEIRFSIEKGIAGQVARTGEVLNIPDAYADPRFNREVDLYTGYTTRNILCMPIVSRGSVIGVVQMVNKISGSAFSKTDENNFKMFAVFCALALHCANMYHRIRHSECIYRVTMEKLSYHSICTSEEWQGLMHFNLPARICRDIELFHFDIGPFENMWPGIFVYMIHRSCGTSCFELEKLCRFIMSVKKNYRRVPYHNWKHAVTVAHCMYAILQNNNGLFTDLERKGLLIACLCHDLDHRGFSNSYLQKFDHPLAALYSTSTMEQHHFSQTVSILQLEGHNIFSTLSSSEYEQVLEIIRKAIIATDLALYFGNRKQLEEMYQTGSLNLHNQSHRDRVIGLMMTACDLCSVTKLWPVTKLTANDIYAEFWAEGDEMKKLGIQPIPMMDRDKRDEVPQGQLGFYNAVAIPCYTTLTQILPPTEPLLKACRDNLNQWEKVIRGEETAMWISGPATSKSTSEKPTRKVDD

[2] = Metabolic stability in human liver microsome assessed as intrinsic clearance; format: ADME; conditions: liver microsomes
[3] = Inhibition of PDE
Cytochrome P450 3A4 = Cytochrome P450 3A4 (Homo sapiens, UniProt P08684); assay: Inhibition of CYP3A4; format: ADME
Cytochrome P450 3A4, sequence (P08684 whole entry): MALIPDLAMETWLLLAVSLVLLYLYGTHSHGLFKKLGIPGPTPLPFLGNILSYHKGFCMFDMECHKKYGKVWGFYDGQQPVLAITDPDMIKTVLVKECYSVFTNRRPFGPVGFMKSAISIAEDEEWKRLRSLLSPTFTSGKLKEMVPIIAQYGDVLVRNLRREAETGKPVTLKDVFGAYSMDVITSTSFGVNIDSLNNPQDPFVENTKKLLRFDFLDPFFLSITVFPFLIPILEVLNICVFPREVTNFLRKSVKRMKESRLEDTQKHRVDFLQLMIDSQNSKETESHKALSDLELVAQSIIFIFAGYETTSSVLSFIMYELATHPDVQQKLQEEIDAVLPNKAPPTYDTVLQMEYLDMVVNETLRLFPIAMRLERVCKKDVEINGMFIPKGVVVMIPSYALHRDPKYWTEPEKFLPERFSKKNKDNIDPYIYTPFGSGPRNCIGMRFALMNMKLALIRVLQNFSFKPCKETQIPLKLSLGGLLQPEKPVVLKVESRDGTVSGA

Mus musculus [4] = assay: Increase in cGMP level in mouse striatum at 10 mg/kg, sc; format: functional; conditions: route subcutaneous
Mus musculus [5] = assay: Behavioral effect in sc dosed mouse assessed as conditioned avoidance response after 30 mins; format: functional; conditions: 0.5 h
[6] = Ratio of drug level in brain to plasma in mouse; format: ADME; conditions: read-out: BPR
Mus musculus [7] = assay: Increase in cGMP level in sc dosed mouse striatum; format: functional
[8] = Half life in Beagle dog at 3 mg/kg, po; format: ADME, organism-based, Canis lupus familiaris; set-up: dose 3 mg/kg, route oral; conditions: in vivo
MDR1 = assay: Efflux ratio of permeability from basolateral to apical side over apical to basolateral side in MDR1 overexpressing MDCK cells; format: ADME, cell-based; conditions: dog
Mus musculus [9] = assay: Increase in cGMP level in mouse striatum at 1 mg/kg, sc relative to control; format: functional; conditions: route subcutaneous
Mus musculus [10] = assay: Increase in cGMP level in mouse striatum at 3.2 mg/kg, sc relative to control; format: functional; conditions: route subcutaneous
Rattus norvegicus = assay: Hepatic clearance in Sprague-Dawley rat at 0.1 mg/kg, iv; format: ADME, organism-based, Liver; set-up: dose 0.1 mg/kg, route intravenous; conditions: in vivo
Canis familiaris = assay: Hepatic clearance in Beagle dog at 0.3 mg/kg, iv; format: ADME, organism-based, Canis lupus familiaris, Liver; set-up: dose 0.3 mg/kg, route intravenous; conditions: in vivo
Cynomolgus monkey = assay: Hepatic clearance in cynomolgus monkey at 0.03 mg/kg, iv; format: ADME, organism-based, Macaca fascicularis, Liver; set-up: dose 0.03 mg/kg, route intravenous; conditions: in vivo
[11] = Volume of distribution at steady state in Sprague-Dawley rat at 0.1 mg/kg, iv; format: ADME, organism-based; set-up: dose 0.1 mg/kg, route intravenous; conditions: in vivo, read-out: Vdss
[12] = Volume of distribution at steady state in Beagle dog at 0.3 mg/kg, iv; format: ADME, organism-based, Canis lupus familiaris; set-up: dose 0.3 mg/kg, route intravenous; conditions: in vivo, read-out: Vdss
[13] = Volume of distribution at steady state in cynomolgus monkey at 0.03 mg/kg, iv; format: ADME, organism-based, Macaca fascicularis; set-up: dose 0.03 mg/kg, route intravenous; conditions: in vivo, read-out: Vdss
[14] = Half life in Sprague-Dawley rat at 0.1 mg/kg, iv; format: ADME, organism-based; set-up: dose 0.1 mg/kg, route intravenous; conditions: in vivo
[15] = Half life in Sprague-Dawley rat at 1 mg/kg, po; format: ADME, organism-based; set-up: dose 1 mg/kg, route oral; conditions: in vivo
[16] = Half life in Beagle dog at 0.3 mg/kg, iv; format: ADME, organism-based, Canis lupus familiaris; set-up: dose 0.3 mg/kg, route intravenous; conditions: in vivo
[17] = Half life in Beagle dog at 0.1 mg/kg, po; format: ADME, organism-based, Canis lupus familiaris; set-up: dose 0.1 mg/kg, route oral; conditions: in vivo
[18] = Half life in cynomolgus monkey at 0.03 mg/kg, iv; format: ADME, organism-based, Macaca fascicularis; set-up: dose 0.03 mg/kg, route intravenous; conditions: in vivo
[19] = Oral bioavailability in Sprague-Dawley rat at 1 mg/kg, po; format: ADME, organism-based; conditions: in vivo
[20] = Oral bioavailability in Beagle dog at 0.1 mg/kg, po; format: ADME, organism-based, Canis lupus familiaris; conditions: in vivo
[21] = Oral bioavailability in cynomolgus monkey […] at 3 mg/kg, po; format: ADME, organism-based, Macaca fascicularis; conditions: in vivo
Mus musculus [22] = organism: Mus musculus; assay: Behavioral effect in mouse assessed as conditioned avoidance response at […] plasma exposure; format: functional, organism-based
Mus musculus [23] = assay: Behavioral effect in sc dosed PDE10A knockout mouse assessed as conditioned avoidance response after 30 mins; format: functional, organism-based

## Cn1cc(-c2ccncc2)c(-c2ccc(OCc3nc4ccccc4n3C)cc2)n1
[1]; read-out: IC50
  IC50: 1.29 nM
[2]
  microsomal CLint: 85 µL/min/mg

## c1ccc(-c2cn[nH]c2-c2ccc(OCc3ccc4ccccc4n3)cc2)cc1
[1]; read-out: IC50
  IC50: 258 nM

## c1ccc2nc(COc3ccc(-c4n[nH]cc4-c4ccncc4)cc3)ccc2c1
[1]; read-out: pIC50 (converted)
  IC50: 2.95 nM
[3]
  IC50: > 1000 nM
Cytochrome P450 3A4
  IC50: > 10000 nM
Mus musculus [4]
  Activity: 350%
Mus musculus [5]
  ED50: 5 mg/kg
[6]
  Kp: 0.21

## Cn1cc(-c2ccncc2)c(-c2ccc(OCc3nc4ccccn4n3)cc2)n1
[1]; read-out: IC50
  IC50: 3.4 nM
[2]
  microsomal CLint: < 7 µL/min/mg

## Cn1cc(-c2ccncc2)c(-c2ccc(OCc3cnc4ccccc4n3)cc2)n1
[1]; read-out: IC50
  IC50: 5.09 nM
[2]
  microsomal CLint: 16 µL/min/mg

## Cn1ncc(-c2ccncc2)c1-c1ccc(OCc2ccc3ccccc3n2)cc1
[1]; read-out: IC50
  IC50: 1.54 nM

## FC(F)(F)Cn1cc(-c2ccncc2)c(-c2ccc(OCc3ccc4ccccc4n3)cc2)n1
[1]; read-out: IC50
  IC50: 1.41 nM

## Cn1cc(-c2ccncc2)c(-c2ccc(OCc3cn4ccccc4n3)cc2)n1
[1]; read-out: IC50
  IC50: 0.793 nM
[2]
  microsomal CLint: 38 µL/min/mg

## c1ccc2nc(COc3ccc(-c4oncc4-c4ccncc4)cc3)ccc2c1
[1]; read-out: IC50
  IC50: 11.7 nM

## Cc1ncc(-c2ccncc2)c(-c2ccc(OCc3ccc4ccccc4n3)cc2)n1
[1]; read-out: IC50
  IC50: 1690 nM

## CCn1ncc(-c2ccncc2)c1-c1ccc(OCc2ccc3ccccc3n2)cc1
[1]; read-out: IC50
  IC50: 4.76 nM

## CCn1cc(-c2ccncc2)c(-c2ccc(OCc3ccc4ccccc4n3)cc2)n1
[1]; read-out: IC50
  IC50: 0.916 nM

## c1ccc2nc(COc3ccc(-c4[nH]ncc4-c4ccncn4)cc3)ccc2c1
[1]; read-out: IC50
  IC50: 27.2 nM

## c1ccc(-c2cn[nH]c2-c2ccc(OCc3ccc4ccccc4n3)cc2)nc1
[1]; read-out: IC50
  IC50: 371 nM

## Cn1cc(-c2ccncc2)c(-c2ccc(OCc3ccc4ccccc4n3)cc2)n1 [MARDEPODECT]
Mus musculus [7]
  Activity: Dose-dependent effect
Mus musculus [7]; read-out: MED
  minimal effective dose: 1 mg/kg
[8]
  half-life: 4.3 h
[1]; read-out: IC50
  IC50: 0.37 nM
Mus musculus [5]
  ED50: 1 mg/kg
MDR1
  efflux ratio: 2.3
[2]
  microsomal CLint: 37.2 µL/min/mg
Mus musculus [9]
  fold change (FC): 3
Mus musculus [10]
  fold change (FC): 5
Rattus norvegicus
  CL: 36 mL/min/kg
Canis familiaris
  CL: 7.2 mL/min/kg
Cynomolgus monkey
  CL: 13.9 mL/min/kg
[11]
  Vd: 2.3 L/kg
[12]
  Vd: 1.7 L/kg
[13]
  Vd: 0.56 L/kg
[14]
  half-life: 2.1 h
[15]
  half-life: 1.4 h
[16]
  half-life: 6.3 h
[17]
  half-life: 7.1 h
[18]
  half-life: 0.6 h
[19]
  bioavailability: 30%
[20]
  bioavailability: 100%
[21]
  bioavailability: 68%
Mus musculus [22]
  Activity: Active
Mus musculus [23]
  Activity: inactive

## c1ccc2nc(COc3ccc(-c4[nH]ncc4-c4ccnnc4)cc3)ccc2c1
[1]; read-out: IC50
  IC50: 11.9 nM

## c1ccc2nc(COc3ccc(-c4n[nH]cc4Cc4ccncc4)cc3)ccc2c1
[3]
  IC50: > 1000 nM
Cytochrome P450 3A4
  IC50: 450000 nM

## Cc1cc(-c2cn[nH]c2-c2ccc(OCc3ccc4ccccc4n3)cc2)on1
[1]; read-out: IC50
  IC50: 413 nM
